From patent US7273862B2, “Aminoalkyl substituted (benzodioxan, benzofuran or benzopyran) derivatives” (Janssen Pharmaceutica N.V., priority 1999, dated 2007)
Where a name gives a salt, the structure may show the parent alone.

Columns and labels:
[1] = system: fundus of the stomach (gastric tone) in conscious dogs; test: Gastric tone measured by an electronic barostat in conscious dogs; assay type: in vivo, beagle dogs; conditions: I.D. administration, 0.63 mg/kg, 1 hour observation period, constant pressure of 6 mmHg
Description: C. Pharmacological Examples C.1. Gastric Tone Measured by an Electronic Barostat in Conscious Dogs
Gastric tone cannot be measured by manometric methods. Therefore an electronic barostat was used. This allows the study of the physiological pattern and regulation of gastric tone in conscious dogs and the influence of test-compounds on this tone.
The barostat consists of an air injection system which is connected by a double-lumen 14-French polyvinyl tube to an ultrathin flaccid polyethylene bag (maximal volume:±700 ml). Variations in gastric tone were measured by recording changes in the volume of air within an intragastric bag, maintained at a constant pressure. The barostat maintains a constant pressure (preselected) within a flaccid air-filled bag introduced into the stomach, changing the volume of air within the bag by an electronic feedback system.
Thus, the barostat measures gastric motor activity (contraction or relaxation) as changes in intragastric volume (decrease or increase resp.) at a constant intragastric pressure. […]
When during a stabilisation period of maximum 90 minutes, the gastric volume is stable during 15 minutes at a constant pressure of 6 mmHg (about 0.81 kPa), the test compound was administered subcutaneously (S.C.), or intraduodenally (I.D.). Test compounds were screened, i.e. changes in gastric volume were measured, usually at 0.63 mg/kg. […]

melting point [°C]	Structure (SMILES)	Maximum change in volume (mean maximal change in volume on relaxation of the fundus) [1] [mL]
138	O=C1NCCCN1CC(O)CNCC(O)C1CCc2ccccc2O1 (centres unmarked) (as salt: hydrochloride) (hydrate or solvate) [Compound 15, [S(A)]-1-[3-[[2-(3,4-dihydro-2H-1-benzopyran-2-yl)-2-hydroxyethyl]amino]-2-hydroxypropyl]tetrahydro-2(1H)-pyrimidinone monohydrochloride dihydrate]	
	O=C1NCCCN1CC(O)CNCC(O)C1CCc2ccccc2O1 (centres unmarked) [Compound 15, [S(A)]-1-[3-[[2-(3,4-dihydro-2H-1-benzopyran-2-yl)-2-hydroxyethyl]amino]-2-hydroxypropyl]tetrahydro-2(1H)-pyrimidinone monohydrochloride dihydrate]	5
